Assay results as given in patent publication US20250120399A1, “METHODS AND COMPOSITIONS FOR ALTERING METABOLITES IN VITIS SPP. AND PREVENTING PESTS AND PATHOGENS” (Impello Biosciences, Inc., priority 2022, published 2025).

Legend:
Malbec wine grape juice = test: Key metabolites in wine grape juice by HPLC with UV detection (Example 2); type: in vivo, Vitis vinifera
Experimental: 200 grapes were randomly selected from the MDJ treated group and control group of the study described above in Example 1. Samples were pooled from each group and juice was prepared for winemaking used standard practices. The juice was analyzed for several key metabolites important for wine making (Table 6). All samples were run on Agilent HPLC with UV detection for the compounds listed below. Between 50 μL-100 μL was injected into the machine per sample.

[1] = test system: powdery mildew (Erysiphe necator); test: Powdery mildew on leaf and fruit under the microscope, 2021 field trial (Example 3); type: in vivo; settings: cabernet sauvignon; approx. 5 mM MDJ at 50 gal/acre, four applications
Experimental: MDJ was applied to fields of grape to investigate the efficacy of MDJ in preventing bunch rot on (Botrytis cinerea) and powdery mildew (Erysiphe necator) on grapes. […] (1 liter) per 50 gallons of water (approximately a 5 mM solution of MDJ). The composition was then applied (at a rate of 50 gallons per acre) to three acres (1245 vines/acre) of a cabernet sauvignon variety grown in Napa Valley, CA. There was a total of four applications between June and September using a ground spray rig. Several leaf and fruit samples were collected to access the presence of powdery mildew under the microscope and compared to leaf and fruit of plants treated with the grower standard.

[2] = test system: Black seedless grapes (Vitis labrusca); test: Red grape panel analysis (ETS Laboratories), black seedless grapes (Example 5); type: in vivo; settings: for Fruit catechin: ABCDE, Aug. 18, 2022
Experimental: (§1) Field trials were conducted in California 2022 (a dry year) to investigate the efficacy of MDJ in preventing Sour Rot caused by Aspergillus carbonarius (also known as summer bunch rot, abbreviated ASPECA in Table 7). Black seedless grapes (Vitis labrusca) were used in this trial. Four vines were used per plot. The plots were arranged in a randomized complete block design with six replicates (plots) per treatment. The plots were sprayed five times (ABCDE) at a rate of 500 gal/AC.
Treatments consisted of MDJ at 32 oz and 48 oz/A. A treatment of Regalia® at 1.5 qt/100 gal and Stargus® at 2 qt/100 gal was included for comparative purposes. Application D occurred at 5-10% veraison. Application E occurred at 40% veraison.
A randomly selected sample of approximately twenty wine grapes was used to evaluate the Brix and titratable acid. Another randomly selected sample (>500 g) was shipped to ETS Laboratories (Paso Robles, CA) for a red grape panel analysis (catechin, quercetin glycosides, tannin, polymeric anthocyanins, total anthocyanins, catechin/tannin index, and polymeric anthocyanins/tannin index). […] Total anthocyanins increased over 17% (449.1 in untreated controls compared to 529.3 in the group treated with 48 oz/A MDJ). An increase in quercetin glycosides, tannin, and polymeric anthocyanins, was also observed in MDJ treated plants (Table 8), as well as titratable acid (Table 9).

Aspergillus carbonarius = test: Sour rot incidence and severity on Kyoho grapes, 2022 field trial (Example 6); type: in vivo; settings: for sour rot Incidence per plot (PESINC, clusters) / sour rot severity High (PESSEV, clusters) / sour rot severity Low (PESSEV, clusters) / sour rot severity Medium (PESSEV, clusters): applications ABCD; for sour rot severity High (PESSEV, clusters): high (>51%); for sour rot severity Low (PESSEV, clusters): low (<40% of cluster area infected); for sour rot severity Medium (PESSEV, clusters): medium (41%-50%)
Experimental: as §1, with “10). Kyoho” for “7). Black seedless”, “(Vitis vinifera×Vitis” for “(Vitis”, “Three” for “Four”, “treatment (24 plots total).” for “treatment.”, “four” for “five”, “(ABCD)” for “(ABCDE)”
(§2) Treatments consisted of MDJ at 32 oz and 48 oz/A. A treatment of Regalia® at 1.5 qt/100 gal and Stargus® at 2 qt/100 gal was included for comparative purposes.
Botrytis and powdery mildew were absent for the trial. An evaluation of sour rot was completed before the harvest. The area of an infected cluster was estimated into a percentage and categorized into three levels of severity: low (<40%), medium (41%-50%), and high (>51%). The majority of individual infected clusters had low severity.

[3] = test system: Kyoho grapes (Vitis vinifera×Vitis labrusca); test: Cluster weight, grape weight, diameter, grapes per cluster, pH and Brix in Kyoho grapes (Example 6); type: in vivo; settings: for Average Brix (FRUIT, BRIX) / Average diameter (FRUIT, DIAMET) / Average fruit per cluster (CLUSTR, COUNT) / Individual grape weight (FRUIT, WEIGHT) / pH (FRUIT, PH) / Average Weight of cluster: applications ABCD; for Average Brix (FRUIT, BRIX) / Average diameter (FRUIT, DIAMET) / Average fruit per cluster (CLUSTR, COUNT) / Individual grape weight (FRUIT, WEIGHT): rated Aug. 17, 2022; for pH (FRUIT, PH): rated Aug. 17, 2022, scale 0-14
Experimental: as §1, with “10). Kyoho” for “7). Black seedless”, “(Vitis vinifera×Vitis” for “(Vitis”, “Three” for “Four”, “treatment (24 plots total).” for “treatment.”, “four” for “five”, “(ABCD)” for “(ABCDE)”
as §2

[4] = Malbec MDJ treated (2.5 mM, Example 1 trial), pooled 200 grapes
[5] = fruit, Aug. 18, 2022, 32 oz/a, applications ABCDE
[6] = fruit, Aug. 18, 2022, 48 oz/a, applications ABCDE

CCCCCC1C(=O)CCC1CC(=O)OC (stereo not drawn) [MDJ, methyl dihydrojasmonate]
Catechin in wine grape juice (Malbec wine grape juice; [4]): 28 mg/L | Polymeric anthocyanins in wine grape juice (Malbec wine grape juice; [4]): 24 mg/L | Quercetin glycosides in wine grape juice (Malbec wine grape juice; [4]): 23 mg/L | Tannin in wine grape juice (Malbec wine grape juice; [4]): 393 mg/L | Total anthocyanins in wine grape juice (Malbec wine grape juice; [4]): 1697 mg/L | Increase of total anthocyanins vs control (Malbec wine grape juice; Malbec wine grape juice, MDJ treatment group): approximately 8% | Color of grape wine juice vs control group (Malbec wine grape juice; Malbec, MDJ treatment group, FIG. 2): richer, darker red color | Control of powdery mildew vs grower standard [1]: the same, or better, control of powdery mildew as the grower standard | Fruit catechin ([2]; 32 oz/a): 0.8b mg/L | Increase of total anthocyanins vs untreated controls ([2]; 48 oz/A MDJ): over 17% | total anthocyanins ([2]; 48 oz/A MDJ): 529.3 | Fruit catechin ([2]; 48 oz/a): 2.6a mg/L | Catechin vs untreated ([2]; MDJ treated plants): increase | Polymeric anthocyanins vs untreated ([2]; MDJ treated plants): increase | Quercetin glycosides vs untreated ([2]; MDJ treated plants): increase | Tannin vs untreated ([2]; MDJ treated plants): increase | catechin/tannin index [2, 5]: 0.0— | polymeric anthocyanins [2, 5]: 13.5— mg/L | polymeric anthocyanins/tannin index [2, 5]: 0.0312— | quercetin glycosides [2, 5]: 89.8— mg/L | tannin [2, 5]: 432.0— mg/L | total anthocyanins [2, 5]: 388.3— mg/L | catechin/tannin index [2, 6]: 0.0— | polymeric anthocyanins [2, 6]: 14.7— mg/L | polymeric anthocyanins/tannin index [2, 6]: 0.0304— | quercetin glycosides [2, 6]: 113.2— mg/L | tannin [2, 6]: 483.2— mg/L | total anthocyanins [2, 6]: 529.3— mg/L | sour rot Incidence per plot (PESINC, clusters) (Aspergillus carbonarius; Aug. 17, 2022, 32 oz/a): 0.8— number | sour rot Incidence per plot (PESINC, clusters) (Aspergillus carbonarius; Aug. 17, 2022, 48 oz/a): 1.2— number | sour rot severity High (PESSEV, clusters) (Aspergillus carbonarius; Aug. 17, 2022, 32 oz/a): 0.0— number | sour rot severity High (PESSEV, clusters) (Aspergillus carbonarius; Aug. 17, 2022, 48 oz/a): 0.0— number | sour rot severity Low (PESSEV, clusters) (Aspergillus carbonarius; Aug. 17, 2022, 32 oz/a): 0.8— number | sour rot severity Low (PESSEV, clusters) (Aspergillus carbonarius; Aug. 17, 2022, 48 oz/a): 0.8— number | Control of sour rot compared to the rest of the treatments (Aspergillus carbonarius; lower rate of MDJ Elicitor (32 oz/A)): highest efficacy in controlling sour rot | sour rot severity Medium (PESSEV, clusters) (Aspergillus carbonarius; Aug. 17, 2022, 32 oz/a): 0.0— number | sour rot severity Medium (PESSEV, clusters) (Aspergillus carbonarius; Aug. 17, 2022, 48 oz/a): 0.3— number | Average Brix (FRUIT, BRIX) ([3]; 32 oz/a): 20.73% | Average diameter (FRUIT, DIAMET) ([3]; 32 oz/a): 23.778 mm | Average fruit per cluster (CLUSTR, COUNT) ([3]; 32 oz/a): 32.5 number | Individual grape weight (FRUIT, WEIGHT) ([3]; 32 oz/a): 7.277 g | pH (FRUIT, PH) ([3]; 32 oz/a): 4.0 | Average Brix (FRUIT, BRIX) ([3]; 48 oz/a): 20.17% | Average diameter (FRUIT, DIAMET) ([3]; 48 oz/a): 23.917 mm | Average fruit per cluster (CLUSTR, COUNT) ([3]; 48 oz/a): 34.3 number | Individual grape weight (FRUIT, WEIGHT) ([3]; 48 oz/a): 7.232 g | pH (FRUIT, PH) ([3]; 48 oz/a): 4.0 | Average Weight of cluster ([3]; Aug. 17, 2022, 32 oz/a): 234.287a g | Average Weight of cluster ([3]; Aug. 17, 2022, 48 oz/a): 246.350a g | Diameter of individual grapes ([3]; MDJ treatment): did not significantly affect | Weight of individual grapes ([3]; MDJ treatment): did not significantly affect | pH of individual grapes ([3]; MDJ treatment): did not significantly affect | Grapes per cluster vs standard control (Regalia and Stargus) ([3]; both rates of MDJ (32 and 48 oz/A)): significantly more grapes per cluster | Brix level compared to other treatments ([3]; higher rate of MDJ (48 oz/A)): statistically reduced the Brix level
